Results as given in paper PMC6377692 (EJNMMI Research, 2019).
“And” between values parts separate entries of the source, which are not always exact repeats. Equal values may be shown once. Bridge positions count the residues as written; N and C are the ends. Square brackets hold non-standard residues; d marks the D form. Peptide text beside a SMILES is read from it. * marks the point of attachment. DO3A(CH2CH2SO2CH2CH2) = O=C(O)CN1CCN(CCS(=O)(=O)CC*)CCN(CC(=O)O)CCN(CC(=O)O)CC1; Ala(4-thiazolyl) = N[C@@H](Cc1cscn1)C(=O)O

What was measured:
[1] = biological target: T1, HEK293 cells transfected with human GCGR (Homo sapiens, UniProt P47871); assay: cellular internalization assay; assay type: cell-based
T1 construct: expressed in transfected cells; host or cells: HEK293
T1 sequence (P47871 26-477): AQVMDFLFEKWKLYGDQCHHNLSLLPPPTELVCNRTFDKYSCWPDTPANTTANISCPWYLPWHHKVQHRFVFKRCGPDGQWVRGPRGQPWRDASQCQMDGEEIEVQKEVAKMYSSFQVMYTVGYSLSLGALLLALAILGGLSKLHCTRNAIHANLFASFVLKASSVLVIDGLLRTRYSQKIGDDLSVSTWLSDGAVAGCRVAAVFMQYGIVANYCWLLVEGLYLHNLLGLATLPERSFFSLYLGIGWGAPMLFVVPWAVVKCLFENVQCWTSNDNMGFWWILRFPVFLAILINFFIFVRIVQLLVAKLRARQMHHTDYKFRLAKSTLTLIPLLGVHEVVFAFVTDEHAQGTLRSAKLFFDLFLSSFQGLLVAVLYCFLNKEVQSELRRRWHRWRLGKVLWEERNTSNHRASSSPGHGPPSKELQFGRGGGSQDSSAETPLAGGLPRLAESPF
Description: The assay was also performed at 4 °C (5% CO2) for 60 and 120 min to suppress internalization. The exact number of cells in each well was assessed by cell counter. After incubation, the hot media containing the radioligand was removed and the cells washed with serum-free media two to three times while cells were put on ice.
To measure membrane bound and internalized radioligand, cells were treated first with 0.2 M glycine buffer containing 4 M urea (pH 2.5) (acid wash buffer) and secondly 1 M NaOH (basic wash buffer).
Briefly, first 0.5 mL of acid wash buffer was added to the cells and allowed to incubate for 5 min on ice. The supernatant was then removed and measured in a well counter (membrane bound fraction) (Uppsala Imanet AB, Uppsala, Sweden). The cells were washed one time, before 0.5 mL of basic wash buffer was added and allowed to incubate for 30 min at 37 °C. Then, the detached cells were collected and measured by well counter (internalized fraction). All samples were repeated in triplicates.
The well counter data for each dish and condition was decay corrected to the time at the start of each experiment and expressed as Bq. The internalized and the total cell-associated (internalized + cell membrane bound) fractions were expressed as percentage of the total added radioligand per million of cells (%ID/M cells). […]

[2] = biological target: T2, GCGR in human liver sections (Homo sapiens, UniProt P47871); assay: in vitro autoradiography, liver sections; assay type: binding
T2 construct: tissue Uppsala Biobank (sample collection 827); host or cells: frozen human liver sections
T2 sequence (P47871 26-477): as above
Description: (§1) Biopsies from donor human liver and pancreas were obtained from Uppsala Biobank (sample collection 827), and their use was approved by local ethical review board (EPN 2015/401).
(§2) Sections were added in duplicates in each individual assay, and each experiment was repeated at least three times with different batches of radioligand, except for rat sections that were only performed in one assay.
(§3) After incubation, the sections were washed three times in 150 mL PBS. Sections were carefully dried at 37 °C and then exposed against a digital phosphorimager plate overnight together with a 10-μl droplet of radioactive reference (cross-calibrated against a gamma counter) on an absorbent paper attached to an object glass. The phosphor imager plates were scanned using a Cyclone Plus Phosphor imager (Perkin Elmer) at 600 dpi, and the resulting autoradiograms analyzed by ImageJ software (NIH, Bethesda). Pixel values in counts/mm^2 were converted to Bq/mm^2 by the included reference. Bq/mm^2 was further converted to fmol/mm^2 by the known specific radioactivity (fmol/Bq) of each batch of radiopharmaceutical.

[3] = biological target: T3, GCGR in rat liver sections (Rattus norvegicus, UniProt P30082); assay: in vitro autoradiography, liver sections; assay type: binding, Sprague Dawley rat
T3 construct: from tissue; host or cells: frozen Sprague Dawley rat liver sections
T3 sequence (P30082 27-485): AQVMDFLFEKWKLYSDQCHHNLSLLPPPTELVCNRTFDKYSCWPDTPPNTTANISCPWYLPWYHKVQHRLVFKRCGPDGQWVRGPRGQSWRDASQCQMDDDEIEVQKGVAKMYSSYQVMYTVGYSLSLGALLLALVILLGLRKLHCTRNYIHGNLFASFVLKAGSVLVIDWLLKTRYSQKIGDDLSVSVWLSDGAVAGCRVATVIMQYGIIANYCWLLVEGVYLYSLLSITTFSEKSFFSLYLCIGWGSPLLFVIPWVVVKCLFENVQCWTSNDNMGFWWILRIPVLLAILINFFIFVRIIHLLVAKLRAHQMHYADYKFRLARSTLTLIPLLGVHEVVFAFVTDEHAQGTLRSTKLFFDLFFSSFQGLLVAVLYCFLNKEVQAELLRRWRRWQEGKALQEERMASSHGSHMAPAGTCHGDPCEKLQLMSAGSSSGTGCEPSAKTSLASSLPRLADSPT
Description: (§4) Liver and pancreas tissues were collected post-mortem from cynomolgus monkeys (NHP) and Sprague Dawley rats. The use of animal tissues collected post-mortem was approved by the Animal Research Ethical Committee of the Uppsala Region and was performed according to the Uppsala university guidelines on animal experimentation (UFV 2007/724).
as §2, §3

[4] = in vitro autoradiography, pancreas sections; assay type: binding; details: human pancreas, 5–10 nM tracer, n = 3
Description: as §1, §2, §3

[5] = in vitro autoradiography, pancreas sections; assay type: binding, cynomolgus monkey (NHP); details: NHP pancreas, 5–10 nM tracer
Description: as §4, §2, §3

[6] = in vitro autoradiography, pancreas sections; assay type: binding, Sprague Dawley rat; details: rat pancreas, 5–10 nM tracer, n = 1
Description: as §4, §2, §3

[7] = biological target: T4, human GCGR (HEK293 cells transfected with human GCGR) (Homo sapiens, UniProt P47871); assay: in vitro autoradiography, blocking on sections of frozen pellet of GCGR-transfected cells; assay type: binding; details: n = 3
T4 construct: expressed in transfected cells; host or cells: HEK293
T4 sequence (P47871 26-477): as the sequence (P47871 26-477) above
Description: as §2, §3

[8] = rat in vivo competition with precursor peptide; parameters: species or system Sprague Dawley rats; details: male, Sprague Dawley, total radioactivity, tracer alone, 40 min (S01) or 60 min (S02) p.i., S02 baseline stated for liver and spleen, read-out: baseline binding in the liver
Description: (§5) A competition study with each respective radiotracer precursor peptide was performed to investigate in vivo selectivity in selected tissues (the blood, heart, lung, liver, pancreas, spleen, kidney, muscle, and bone marrow).
(§6) Animals in each group (n = 4 for each radioligand) were co-injected with 1 mg/kg of either unlabelled DO3A-S01-GCG or -DO3A-S02-GCG peptide to determine the fraction of binding in each tissue which was receptor mediated.
(§7) The time point of euthanasia for each radiotracer was determined based on liver-to-blood ratio obtained from the biodistribution study above, as well as the radionuclide half-life and known radiotracer precursor half-life in blood plasma. Tissue resection and analysis of radioactive uptake in each tissue (expressed as SUV) were performed and analyzed as described above.

[9] = biological target: T5, GCG receptor (Rattus norvegicus, UniProt P30082); assay: rat in vivo competition with precursor peptide; parameters: species or system Sprague Dawley rats; details: 1 mg/kg unlabelled precursor
T5 construct: tissue Taconic, Denmark (animals); host or cells: organs of living Sprague Dawley rats (liver, spleen, bone marrow and others)
T5 sequence (P30082 27-485): as the sequence (P30082 27-485) above
Description: as §5, §6, §7

[10] = human predicted dosimetry (OLINDA/EXM 1.1, from rat biodistribution)
Description: The dosimetry calculations were performed as described previously for [^68Ga]Ga-DO3A-VS-Cys^40-Exendin4 [11].
Briefly, animal-derived tissue uptake was normalized to that of human tissues (using tissue weights of whole body adult reference male and female phantoms). The normalized SUVs were then un-decay corrected to their respective time point to reflect the actual radiation burden in each tissue. The tissue residence times (MBq-h/MBq) were assessed by trapezoidal approximation of the un-decay-corrected human SUV biodistribution data. The tissue washout from the last time point (180 min) to infinity was estimated by a single mono-exponential fit.
The estimation of the absorbed dose was performed by the OLINDA/EXM 1.1 software (Vanderbilt University, USA) where the calculations were based on the adult reference male or female phantoms to obtain the intended absorbed dose estimate in humans (ICRP60). The organ-specific doses are reported as mGy/MBq (effective dose as mSv/MBq). The amount of MBq that can be safely administered annually (MBq/year) was calculated for each organ as well as the effective dose, by dividing the limiting dose (10 mSv/year for the effective dose, 150 mGy/year for all tissues except for the red marrow and uterus with 50 mGy/year) by the dose (mGy/MBq or mSv/MBq).

[11] = data not shown
[12] = extrapolated from rat biodistribution

CC[C@H](C)[C@H](NC(=O)[C@H](Cc1ccccc1)NC(=O)[C@H](CCC(=O)O)NC(=O)[C@@H]1CCCCNC(=O)CC[C@H](NC(=O)[C@H](CC(=O)O)NC(=O)[C@H](CC(C)C)NC(=O)[C@H](CCC(N)=O)NC(=O)[C@H](CCCCN)NC(=O)[C@H](CO)NC(=O)[C@H](Cc2ccc(O)cc2)NC(=O)[C@H](CC(=O)O)NC(=O)[C@H](CO)NC(=O)[C@@H](NC(=O)[C@H](Cc2ccccc2)NC(=O)[C@@H](NC(=O)CNC(=O)[C@H](CCC(N)=O)NC(=O)[C@@H](CO)NC(=O)[C@@H](N)Cc2cscn2)[C@@H](C)O)[C@@H](C)O)C(=O)N[C@@H](CCC(N)=O)C(=O)N[C@@H](CCCNC(=N)N)C(=O)N[C@@H](C)C(=O)N1)C(=O)N[C@@H](CCC(=O)O)C(=O)N[C@@H](Cc1c[nH]c2ccccc12)C(=O)N[C@@H](CC(C)C)C(=O)N[C@@H](CC(C)C)C(=O)N[C@@H](C)C(=O)N[C@H](C(=O)NCC(=O)N1CCC[C@H]1C(=O)N[C@@H](CCC(=O)O)C(=O)N[C@@H](CO)C(=O)NCC(=O)N[C@@H](C)C(=O)N1CCC[C@H]1C(=O)N1CCC[C@H]1C(=O)N1CCC[C@H]1C(=O)N[C@@H](CO)C(=O)N[C@@H](CSCCS(=O)(=O)CCN1CCN(CC(=O)O)CCN(CC(=O)O)CCN(CC(=O)O)CC1)C(N)=O)[C@@H](C)O [[^68Ga]Ga-DO3A-S01-GCG, metal not drawn] (H-[Ala(4-thiazolyl)][dS]QGTFTSDYSKQLDEQRAKEFIEWLLATGPESGAPPPSC(DO3A(CH2CH2SO2CH2CH2))-NH2; lactam 16-20)
binding to GCGR-transfected cells at steady state / plateau (total cell-associated) ([1]; 3–7 nM tracer, RT, after 60–120 min (S01) or 60 min (S02), triplicates, 3 batches): approximately 65 % ID/million cells
effect of cooling on internalization ([1]; 4 °C, 60 and 120 min): suppressed almost completely
effect of GLP-1 in excess on tracer binding to liver sections ([2]; 1 μM GLP-1, n = 3): did not induce inhibition
inhibition of tracer binding to liver sections by co-incubation with own precursor peptide ([2]; 10 μM precursor, n = 3): did not increase the degree of inhibition
effect of GLP-1 in excess on tracer binding to liver sections ([3]; 1 μM GLP-1, n = 1): did not induce inhibition
inhibition of tracer binding to liver sections by co-incubation with own precursor peptide ([3]; 10 μM precursor, n = 1): did not increase the degree of inhibition
binding in pancreas sections [4]: Only background binding
binding in pancreas sections [5]: Only background binding
binding in pancreas sections [6]: Only background binding
effect of co-incubation with GCG on binding to sections of GCGR-transfected cell pellet ([7]; 10 μM GCG): completely abolished
effect of co-incubation with own precursor peptide on binding to sections of GCGR-transfected cell pellet ([7]; 10 μM precursor): completely abolished
SUV [8]: > 2 SUV
decrease of binding in the spleen by co-injection of precursor peptide ([9]; 40 min (S01) or 60 min (S02) p.i., n = 4 per group): > 80%
decrease of binding in the liver by co-injection of precursor peptide ([9]; 40 min (S01) or 60 min (S02) p.i., n = 4 per group, 1 mg/kg): > 80% and 84%
effect of co-injection of precursor peptide on kidney uptake ([9]; 40 min p.i.): not affected
decrease of binding in the bone marrow by co-injection of precursor peptide ([9]; 40 min p.i., n = 4 per group): > 80%
human predicted absorbed dose, kidneys [10, 12]: 0.53 mGy/MBq
human predicted whole body effective dose [10, 12]: 20.2 μSv/MBq
calculated maximal annual dosing, limited by whole body effective dose ([10]; limit 10 mSv/year): 495 MBq
calculated maximal annual dosing, by bone marrow absorbed dose ([10]; limit 50 mGy/year): > 2000 MBq
calculated maximal annual dosing, limited by kidney dose ([10]; limit 150 mGy/year): 278 MBq
exposure [11]: 1570 ng·h/mL
plasma t½ [11]: 15 min
